Source: ChEMBL document CHEMBL3045546, “Synthesis and antimicrobial screening of 4-thiazolidinone and 2-azetidinone derivatives of piperazine” (2013)
≈ marks a conversion by molar mass, not a printed value.

Assays:
Assay type in all cases: functional
Klebsiella pneumoniae = assay: Antimicrobial activity against Klebsiella pneumoniae ATCC 13883 assessed as growth inhibition by broth dilution method
Salmonella typhi = assay: Antimicrobial activity against Salmonella enterica subsp. enterica serovar Typhi ATCC 19430 assessed as growth inhibition by broth dilution method
Staphylococcus hominis = assay: Antimicrobial activity against Staphylococcus hominis ATCC 27844 assessed as growth inhibition by broth dilution method
Rhizoctonia solani = assay: Antimicrobial activity against Rhizoctonia solani ATCC 76131 assessed as growth inhibition by broth dilution method
Escherichia coli = assay: Antimicrobial activity against Escherichia coli ATCC 25922 assessed as growth inhibition by broth dilution method
Fusarium solani = assay: Antimicrobial activity against Fusarium solani ATCC 38136 assessed as growth inhibition by broth dilution method
Bacillus cereus = assay: Antimicrobial activity against Bacillus cereus ATCC 11778 assessed as growth inhibition by broth dilution method
Micrococcus luteus = assay: Antimicrobial activity against Micrococcus luteus ATCC 4698 assessed as growth inhibition by broth dilution method
Proteus mirabilis = assay: Antimicrobial activity against Proteus mirabilis ATCC 49565 assessed as growth inhibition by broth dilution method
Microsporum canis = assay: Antimicrobial activity against Arthroderma otae ATCC 11622 assessed as growth inhibition by broth dilution method
Pseudomonas aeruginosa = assay: Antimicrobial activity against Pseudomonas aeruginosa ATCC 10145 assessed as growth inhibition by broth dilution method
Candida albicans = assay: Antimicrobial activity against Candida albicans ATCC 10231 assessed as growth inhibition by broth dilution method
Trichoderma viride = assay: Antimicrobial activity against Hypocrea rufa ATCC 52440 assessed as growth inhibition by broth dilution method
Bacillus pumilus = assay: Antimicrobial activity against Bacillus pumilus ATCC 14884 assessed as growth inhibition by broth dilution method
Staphylococcus aureus = assay: Antimicrobial activity against Staphylococcus aureus ATCC 25923 assessed as growth inhibition by broth dilution method
Aspergillus flavus = assay: Antimicrobial activity against Aspergillus flavus ATCC 15517 assessed as growth inhibition by broth dilution method
Bacillus subtilis = assay: Antimicrobial activity against Bacillus subtilis ATCC 6633 assessed as growth inhibition by broth dilution method
Aspergillus fumigatus = assay: Antimicrobial activity against Aspergillus fumigatus assessed as growth inhibition by broth dilution method
Aspergillus awamori = assay: Antimicrobial activity against Aspergillus awamori ATCC 22342 assessed as growth inhibition by broth dilution method
[1] = tested on: Staphylococcus epidermidis; assay: Antimicrobial activity against Staphylococcus epidermidis ATCC 12228 assessed as growth inhibition by broth dilution method
Alternaria alternata = assay: Antimicrobial activity against Alternaria alternata ATCC 66868 assessed as growth inhibition by broth dilution method
Aspergillus niger = assay: Antimicrobial activity against Aspergillus niger ATCC 9142 assessed as growth inhibition by broth dilution method
Trichophyton longifusum = assay: Antimicrobial activity against Trichophyton longifusum ATCC 22397 assessed as growth inhibition by broth dilution method
Proteus vulgaris = assay: Antimicrobial activity against Proteus vulgaris ATCC 13315 assessed as growth inhibition by broth dilution method

## O=C1CSC(c2ccc(O)cc2)N1CCN1CCNCC1 (configuration not stated)
Klebsiella pneumoniae
  MIC: 9.37 µg/mL (≈ 30.5 µM)
Salmonella typhi
  MIC: 9.37 µg/mL (≈ 30.5 µM)
Staphylococcus hominis
  MIC: 9.37 µg/mL (≈ 30.5 µM)
Rhizoctonia solani
  MIC: 18.8 µg/mL (≈ 61 µM)
Escherichia coli
  MIC: 4.68 µg/mL (≈ 15.2 µM)
Fusarium solani
  MIC: 9.73 µg/mL (≈ 31.7 µM)
Bacillus cereus
  MIC: 9.37 µg/mL (≈ 30.5 µM)
Micrococcus luteus
  MIC: 9.37 µg/mL (≈ 30.5 µM)
Proteus mirabilis
  MIC: 9.37 µg/mL (≈ 30.5 µM)
Microsporum canis
  MIC: 18.8 µg/mL (≈ 61 µM)
Pseudomonas aeruginosa
  MIC: 9.37 µg/mL (≈ 30.5 µM)
Candida albicans
  MIC: 9.73 µg/mL (≈ 31.7 µM)
Trichoderma viride
  MIC: 18.8 µg/mL (≈ 61 µM)
Bacillus pumilus
  MIC: 9.37 µg/mL (≈ 30.5 µM)
Staphylococcus aureus
  MIC: 9.37 µg/mL (≈ 30.5 µM)
Aspergillus flavus
  MIC: 18.8 µg/mL (≈ 61 µM)
Bacillus subtilis
  MIC: 4.68 µg/mL (≈ 15.2 µM)
Aspergillus fumigatus
  MIC: 9.37 µg/mL (≈ 30.5 µM)
Aspergillus awamori
  MIC: 18.8 µg/mL (≈ 61 µM)
[1]
  MIC: 9.37 µg/mL (≈ 30.5 µM)
Alternaria alternata
  MIC: 18.8 µg/mL (≈ 61 µM)
Aspergillus niger
  MIC: 18.8 µg/mL (≈ 61 µM)
Trichophyton longifusum
  MIC: 9.73 µg/mL (≈ 31.7 µM)
Proteus vulgaris
  MIC: 4.68 µg/mL (≈ 15.2 µM)

## COc1cc(C2C(Cl)C(=O)N2CCN2CCN(C(=O)CCl)CC2)ccc1O (configuration not stated)
Klebsiella pneumoniae
  MIC: 9.37 µg/mL (≈ 22.5 µM)
Salmonella typhi
  MIC: 4.68 µg/mL (≈ 11.2 µM)
Staphylococcus hominis
  MIC: 9.37 µg/mL (≈ 22.5 µM)
Rhizoctonia solani
  MIC: 9.37 µg/mL (≈ 22.5 µM)
Escherichia coli
  MIC: 9.37 µg/mL (≈ 22.5 µM)
Fusarium solani
  MIC: 18.8 µg/mL (≈ 45 µM)
Bacillus cereus
  MIC: 9.37 µg/mL (≈ 22.5 µM)
Micrococcus luteus
  MIC: 4.68 µg/mL (≈ 11.2 µM)
Proteus mirabilis
  MIC: 9.37 µg/mL (≈ 22.5 µM)
Microsporum canis
  MIC: 18.8 µg/mL (≈ 45 µM)
Pseudomonas aeruginosa
  MIC: 4.68 µg/mL (≈ 11.2 µM)
Candida albicans
  MIC: 9.37 µg/mL (≈ 22.5 µM)
Trichoderma viride
  MIC: 18.8 µg/mL (≈ 45 µM)
Bacillus pumilus
  MIC: 9.37 µg/mL (≈ 22.5 µM)
Staphylococcus aureus
  MIC: 9.37 µg/mL (≈ 22.5 µM)
Aspergillus flavus
  MIC: 9.37 µg/mL (≈ 22.5 µM)
Bacillus subtilis
  MIC: 9.37 µg/mL (≈ 22.5 µM)
Aspergillus fumigatus
  MIC: 18.8 µg/mL (≈ 45 µM)
Aspergillus awamori
  MIC: 18.8 µg/mL (≈ 45 µM)
[1]
  MIC: 9.37 µg/mL (≈ 22.5 µM)
Alternaria alternata
  MIC: 18.8 µg/mL (≈ 45 µM)
Aspergillus niger
  MIC: 18.8 µg/mL (≈ 45 µM)
Trichophyton longifusum
  MIC: 9.37 µg/mL (≈ 22.5 µM)
Proteus vulgaris
  MIC: 9.37 µg/mL (≈ 22.5 µM)

## COc1cc(C2SCC(=O)N2CCN2CCNCC2)ccc1O (configuration not stated)
Klebsiella pneumoniae
  MIC: 9.37 µg/mL (≈ 27.8 µM)
Salmonella typhi
  MIC: 9.37 µg/mL (≈ 27.8 µM)
Staphylococcus hominis
  MIC: 9.37 µg/mL (≈ 27.8 µM)
Rhizoctonia solani
  MIC: 18.8 µg/mL (≈ 55.6 µM)
Escherichia coli
  MIC: 9.37 µg/mL (≈ 27.8 µM)
Fusarium solani
  MIC: 9.73 µg/mL (≈ 28.8 µM)
Bacillus cereus
  MIC: 9.37 µg/mL (≈ 27.8 µM)
Micrococcus luteus
  MIC: 4.68 µg/mL (≈ 13.9 µM)
Proteus mirabilis
  MIC: 9.37 µg/mL (≈ 27.8 µM)
Microsporum canis
  MIC: 18.8 µg/mL (≈ 55.6 µM)
Pseudomonas aeruginosa
  MIC: 9.37 µg/mL (≈ 27.8 µM)
Candida albicans
  MIC: 18.8 µg/mL (≈ 55.6 µM)
Trichoderma viride
  MIC: 18.8 µg/mL (≈ 55.6 µM)
Bacillus pumilus
  MIC: 9.37 µg/mL (≈ 27.8 µM)
Staphylococcus aureus
  MIC: 9.37 µg/mL (≈ 27.8 µM)
Aspergillus flavus
  MIC: 18.8 µg/mL (≈ 55.6 µM)
Bacillus subtilis
  MIC: 9.37 µg/mL (≈ 27.8 µM)
Aspergillus fumigatus
  MIC: 18.8 µg/mL (≈ 55.6 µM)
Aspergillus awamori
  MIC: 9.73 µg/mL (≈ 28.8 µM)
[1]
  MIC: 9.37 µg/mL (≈ 27.8 µM)
Alternaria alternata
  MIC: 9.73 µg/mL (≈ 28.8 µM)
Aspergillus niger
  MIC: 9.73 µg/mL (≈ 28.8 µM)
Trichophyton longifusum
  MIC: 9.73 µg/mL (≈ 28.8 µM)
Proteus vulgaris
  MIC: 9.37 µg/mL (≈ 27.8 µM)
